Measurements as given in publication PMC6778101 (Nature Communications, 2019).
Ends that are not written are not given here. Peptide text beside a SMILES is read from it.

Experiments:
E. coli K-12 BW25113 = test: microbe, parasite or virus in culture; type: cell-based, Escherichia coli; settings: for MIC: starting wild-type strain of the evolution experiment, broth dilution, MS medium, 5 × 10^5 cells/mL, 30 °C, 24 h, MIC = OD600 < 0.05; for MIC in 30 °C / MIC in 37 °C: strain not given
[1] = test system: E. coli K-12 BW25113 carrying ASKA plasmids; test: microbe, parasite or virus in culture; type: cell-based, Escherichia coli; settings: for MIC fold change: MIC of ASKA pooled library / MIC of E.coli carrying empty ASKA plasmid; for MIC value of E. coli K-12 BW25113 carrying the empty plasmid of the ASKA library / MIC value of E. coli K-12 BW25113 carrying the pooled plasmids of the ASKA library: MS medium + 10 µg mL−1 CHL + 500 µM IPTG, 5 × 10^5 cells, 16–18 h, 37 °C; for Average fold change of the 3 replicates (MIC pooled ASKA library / MIC empty plasmid): mean of three biological replicates
Outline: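 E. coli BW25113 transformed with the pooled ASKA ORF overexpression library, or empty-vector control, grown with CHL, induced with IPTG.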

Human red blood cells = test: Hemolysis assay; type: cell-based; settings: for ATI (activity/toxicity index), ratio MHC / MM: MHC on human red blood cells / median of MICs in E. coli K12
Procedure: Human red blood cells (hemoglobin concentration (Hb) 150–160 g L^−1) were collected from apparently healthy patients in EDTA tubes. 600 µL of EDTA-blood were washed in TBS buffer (10 mM TRIS, 150 mM NaCl) and centrifuged at 1500 × g for 1 min until the supernatant became colorless. The final pellet was diluted to 5 mL with TBS buffer. Hundred microliters of this cell suspension was pipetted into sterile Eppendorf tubes together with twofold serial dilutions of each compound to a final volume of 200 μl. Final concentrations ranged between 2500 µg mL^−1–9.75 µg mL^−1. Following incubation for one hour at 37 °C, samples were centrifuged at 1500 g for 1 min to precipitate the red blood cells. All supernatants were transferred to sterile 96-well plates for the measurement of their direct optical density (OD) at 565 nm wavelength (Multiskan FC microplate reader, Thermo Scientific). Melittin (Bachem) at concentration of 50 µg.mL^−1 and TBS were used as positive (100% hemolysis) and negative (no hemolysis) controls, respectively. Haemolytic effect of each peptide at each concentration was calculated as follows: Hemolysis effect = (Compound OD565nm − TBS OD565nm) × 100/(Melitin OD565nm − TBS OD565nm).

[2] = replicate 1 (first line per drug)
[3] = replicate 2 (second line per drug)
[4] = replicate 3 (third line per drug)

NC[C@H]1O[C@H](O[C@H]2[C@H](O)[C@@H](O[C@H]3O[C@H](CO)[C@@H](O)[C@H](N)[C@H]3O)[C@H](N)C[C@@H]2N)[C@H](O)[C@@H](O)[C@@H]1O [KAN, Kanamycin]
MIC (E. coli K-12 BW25113): 8 µg/mL | MIC fold change [1, 2]: 1.3 | MIC fold change [1, 3]: 1.3 | MIC fold change [1, 4]: 1.69 | MIC value of E. coli K-12 BW25113 carrying the empty plasmid of the ASKA library ([1]; Replicate 1): 9.65 µg/mL | MIC value of E. coli K-12 BW25113 carrying the pooled plasmids of the ASKA library ([1]; Replicate 1): 12.55 µg/mL | MIC value of E. coli K-12 BW25113 carrying the empty plasmid of the ASKA library ([1]; Replicate 2): 7.43 µg/mL | MIC value of E. coli K-12 BW25113 carrying the pooled plasmids of the ASKA library ([1]; Replicate 2): 9.65 µg/mL | MIC value of E. coli K-12 BW25113 carrying the empty plasmid of the ASKA library ([1]; Replicate 3): 7.43 µg/mL | MIC value of E. coli K-12 BW25113 carrying the pooled plasmids of the ASKA library ([1]; Replicate 3): 12.55 µg/mL | Average fold change of the 3 replicates (MIC pooled ASKA library / MIC empty plasmid) [1]: 1.43

CC[C@H](C)[C@@H]1NC(=O)CNC(=O)[C@H](CCCNC(=N)N)NC(=O)[C@H](Cc2ccc(O)cc2)NC(=O)[C@@H]2CSSC[C@H](NC1=O)C(=O)N[C@@H](Cc1ccc(O)cc1)C(=O)N[C@@H](CCCNC(=N)N)C(=O)N[C@@H](CCCCN)C(=O)N[C@H](C(=O)N[C@@H](CCCNC(=N)N)C(N)=O)CSSC[C@H](NC(=O)[C@H](Cc1c[nH]c3ccccc13)NC(=O)[C@@H](N)CCCNC(=N)N)C(=O)N[C@@H](Cc1ccccc1)C(=O)N[C@@H](CCCNC(=N)N)C(=O)N[C@@H](C(C)C)C(=O)N2 [TPII, tachyplesin II] (HELM PEPTIDE1{R.W.C.F.R.V.C.Y.R.G.I.C.Y.R.K.C.R.[am]}$PEPTIDE1,PEPTIDE1,3:R3-16:R3|PEPTIDE1,PEPTIDE1,7:R3-12:R3$$$V2.0; N-terminus and C-terminus assumed; bridges inferred)
MIC in 30 °C (E. coli K-12 BW25113; incubation time 24 hour): 5 µg/mL | MIC in 37 °C (E. coli K-12 BW25113; incubation time 24 hour): 5 µg/mL | MIC in 30 °C (E. coli K-12 BW25113; incubation time 48 hour): 5 µg/mL | MIC in 37 °C (E. coli K-12 BW25113; incubation time 48 hour): 6 µg/mL | MIC in 30 °C (E. coli K-12 BW25113; incubation time 72 hour): 6 µg/mL | MIC in 37 °C (E. coli K-12 BW25113; incubation time 72 hour): 6 µg/mL | MIC fold change [1, 2]: 1 | MIC fold change [1, 3]: 1 | MIC fold change [1, 4]: 1 | Average fold change of the 3 replicates (MIC pooled ASKA library / MIC empty plasmid) [1]: 1.00 | ATI (activity/toxicity index), ratio MHC / MM (Human red blood cells): 155.22

SWLSKTAKKLENSAKKRISEGIAIAIQGGPR [CP1, Cecropin P1]
MM (median of MICs) (E. coli K-12 BW25113; median of MICs in E. coli K12): 2.95 µg/mL | MIC (E. coli K-12 BW25113): 100 µg/mL | MIC value of E. coli K-12 BW25113 carrying the empty plasmid of the ASKA library ([1]; Replicate 1): 2.31 µg/mL | MIC value of E. coli K-12 BW25113 carrying the pooled plasmids of the ASKA library ([1]; Replicate 1): 2.31 µg/mL | MIC value of E. coli K-12 BW25113 carrying the empty plasmid of the ASKA library ([1]; Replicate 2): 2.31 µg/mL | MIC value of E. coli K-12 BW25113 carrying the pooled plasmids of the ASKA library ([1]; Replicate 2): 2.31 µg/mL | MIC value of E. coli K-12 BW25113 carrying the empty plasmid of the ASKA library ([1]; Replicate 3): 2.31 µg/mL | MIC value of E. coli K-12 BW25113 carrying the pooled plasmids of the ASKA library ([1]; Replicate 3): 2.31 µg/mL | ATI (activity/toxicity index), ratio MHC / MM (Human red blood cells): > 847.45 | MHC (minimum haemolytic concentration, concentration causing 10% haemolysis) (Human red blood cells; human red blood cells, 1 h, 37 °C): > 2500 µg/mL
